Laboratory results taken from the CombiSolv-Exp solvation set (Vermeire and Green 2021).

Experiment: solvent given as SMILES
[1] = in CCCCCCCCC=CCCCCCCCC(=O)OCC(COC(=O)CCCCCCCC=CCCCCCCCC)OC(=O)CCCCCCCC=CCCCCCCCC

Compound: O=C(O)c1ccccc1
- solvation free energy, 298 K (in C1CCOC1): -9.93 kcal/mol
- solvation free energy, 298 K (in C1COCCO1): -9.81 kcal/mol
- solvation free energy, 298 K (in C=CCCCCCCC=C): -6.26 kcal/mol
- solvation free energy, 298 K (in C=CCCCCCCCCCCCCCC): -5.84 kcal/mol
- solvation free energy, 298 K (in CC(=O)N(C)C): -10.1 kcal/mol
- solvation free energy, 298 K (in CC(C)=O): -9.63 kcal/mol
- solvation free energy, 298 K (in CC(C)CCO): -9.41 kcal/mol
- solvation free energy, 298 K (in CC(C)CO): -9.4 kcal/mol
- solvation free energy, 298 K (in CC(C)O): -9.63 kcal/mol
- solvation free energy, 298 K (in CCC(C)O): -9.41 kcal/mol
- solvation free energy, 298 K (in CCCC(C)O): -9.52 kcal/mol
- solvation free energy, 298 K (in CCCCCCCCCCO): -9.21 kcal/mol
- solvation free energy, 298 K (in CCCCCCCO): -9.27 kcal/mol
- solvation free energy, 298 K (in CCCCCCO): -9.39 kcal/mol
- solvation free energy, 298 K (in CCCCCO): -9.44 kcal/mol
- solvation free energy, 298 K (in CCCCO): -9.58 kcal/mol
- solvation free energy, 298 K (in CCCCOC(C)=O): -9.29 kcal/mol
- solvation free energy, 298 K (in CCCCOCCCC): -8.8 kcal/mol
- solvation free energy, 298 K (in CCCO): -9.6 kcal/mol
- solvation free energy, 298 K (in CCO): -9.71 kcal/mol
- solvation free energy, 298 K (in CCOC(C)=O): -9.43 kcal/mol
- solvation free energy, 298 K (in CCOCC): -9.45 kcal/mol
- solvation free energy, 298 K (in CN(C)C=O): -10.1 kcal/mol
- solvation free energy, 298 K (in CNC=O): -10 kcal/mol
- solvation free energy, 298 K (in CO): -9.81 kcal/mol
- solvation free energy, 298 K (in O): -6.96 kcal/mol

Compound: CCCCCNCc1ccc(C)cc1
- solvation free energy, 298 K (in O): -5.21 kcal/mol

Compound: COC(OC)OC
- solvation free energy, 298 K (in O): -4.42 kcal/mol

Compound: O=C(O)CCCCCCc1ccccc1
- solvation free energy, 298 K (in O): -8.72 kcal/mol

Compound: CC1CCCCC1O (centres undefined)
- solvation free energy, 298 K (in O): -4.79 kcal/mol

Compound: Clc1ccc(C(c2ccccc2Cl)C(Cl)(Cl)Cl)cc1 (centres undefined)
- solvation free energy, 298 K [1]: -13.8 kcal/mol
- solvation free energy, 298 K (in O): -5.31 kcal/mol

Compound: CCCC(C)=O
- solvation free energy, 298 K (in CC(C)CC(C)(C)C): -4.14 kcal/mol
- solvation free energy, 298 K (in CC(C)CCCC(C)CCCC(C)CCCCC(C)CCCC(C)CCCC(C)C): -3.72 kcal/mol
- solvation free energy, 298 K (in CCCCCCC): -4.07 kcal/mol
- solvation free energy, 298 K (in CCCCCCCC): -3.87 kcal/mol
- solvation free energy, 298 K (in CCCCCCCCCC): -3.93 kcal/mol
- solvation free energy, 298 K (in CCCCCCCCCCCCCCCC): -3.74 kcal/mol
- solvation free energy, 298 K (in CCCCCCCCO): -4.35 kcal/mol
- solvation free energy, 298 K (in CCN1CCCC1=O): -4.86 kcal/mol
- solvation free energy, 298 K (in CCN(CC)C(C)=O): -4.91 kcal/mol
- solvation free energy, 298 K (in CCNC(C)=O): -4.61 kcal/mol
- solvation free energy, 298 K (in CCNC=O): -4.69 kcal/mol
- solvation free energy, 298 K (in CN1CCCC1=O): -4.73 kcal/mol
- solvation free energy, 298 K (in CN1CCCCC1=O): -4.83 kcal/mol
- solvation free energy, 298 K (in CNC=O): -4.69 kcal/mol
- solvation free energy, 298 K (in CO): -4.88 kcal/mol
- solvation free energy, 298 K (in NC=O): -4.12 kcal/mol
- solvation free energy, 298 K (in O): -3.46 kcal/mol
- solvation free energy, 298 K (in O=CN1CCOCC1): -4.52 kcal/mol
- solvation free energy, 298 K (in [2H]O[2H]): -3.38 kcal/mol

Compound: CCCCP(=O)(CCCC)CCCC
- solvation free energy, 298 K (in O): -11.1 kcal/mol

Compound: OCc1ccccc1
- solvation free energy, 298 K (in CCCCCCCCCCCCCCCC): -5.74 kcal/mol
- solvation free energy, 298 K (in N#Cc1ccccc1): -8 kcal/mol
- solvation free energy, 298 K (in O): -6.79 kcal/mol

Compound: C#CC(C)(C)O
- solvation free energy, 298 K (in O): -5.18 kcal/mol

Compound: Nc1ccc(N)c2c1C(=O)c1ccccc1C2=O
- solvation free energy, 298 K (in O): -11.8 kcal/mol

Compound: O=CN1CCOCC1
- solvation free energy, 298 K (in O): -9.41 kcal/mol

Compound: Oc1c(Cl)cc(Cl)cc1Cl
- solvation free energy, 298 K [1]: -8.28 kcal/mol
- solvation free energy, 298 K (in O): -4.95 kcal/mol

Compound: c1ccc2c(c1)Cc1ccccc1-2
- solvation free energy, 298 K (in CC(=O)N(C)C): -10.4 kcal/mol
- solvation free energy, 298 K (in CC(C)(C)O): -8.84 kcal/mol
- solvation free energy, 298 K (in CC(C)CC(C)(C)C): -9.32 kcal/mol
- solvation free energy, 298 K (in CC(C)CCO): -8.95 kcal/mol
- solvation free energy, 298 K (in CC(C)CO): -9.21 kcal/mol
- solvation free energy, 298 K (in CC(C)O): -8.92 kcal/mol
- solvation free energy, 298 K (in CCC(C)O): -8.95 kcal/mol
- solvation free energy, 298 K (in CCCC(C)O): -9.03 kcal/mol
- solvation free energy, 298 K (in CCCCC(CC)CO): -9.14 kcal/mol
- solvation free energy, 298 K (in CCCCCC): -9.29 kcal/mol
- solvation free energy, 298 K (in CCCCCCC): -9.3 kcal/mol
- solvation free energy, 298 K (in CCCCCCCC): -9.29 kcal/mol
- solvation free energy, 298 K [1]: -9.74 kcal/mol
- solvation free energy, 298 K (in CCCCCCCCCC): -9.32 kcal/mol
- solvation free energy, 298 K (in CCCCCCCCCCO): -9.33 kcal/mol
- solvation free energy, 298 K (in CCCCCCCCO): -9.32 kcal/mol
- solvation free energy, 298 K (in CCCCCCCO): -9.33 kcal/mol
- solvation free energy, 298 K (in CCCCCCO): -9.26 kcal/mol
- solvation free energy, 298 K (in CCCCCO): -9.24 kcal/mol
- solvation free energy, 298 K (in CCCCO): -9.15 kcal/mol
- solvation free energy, 298 K (in CCCO): -9.09 kcal/mol
- solvation free energy, 298 K (in CCO): -8.93 kcal/mol
- solvation free energy, 298 K (in CN1CCCC1=O): -10.5 kcal/mol
- solvation free energy, 298 K (in CO): -8.85 kcal/mol
- solvation free energy, 298 K (in O): -3.34 kcal/mol

Compound: CC1=C2CC3CCC(C)C2(CC1)C3(C)C (centres undefined)
- solvation free energy, 298 K (in O): 0.78 kcal/mol

Compound: CCCCBr
- solvation free energy, 298 K (in C=CCCCCCCCCCCCCCC): -4.19 kcal/mol
- solvation free energy, 298 K (in CC(C)(C)O): -4.09 kcal/mol
- solvation free energy, 298 K (in CC(C)CO): -4.15 kcal/mol
- solvation free energy, 298 K (in CCC(C)O): -4.19 kcal/mol
- solvation free energy, 298 K (in CCCCCCCCCCO): -4.19 kcal/mol
- solvation free energy, 298 K (in CCCCCCCCO): -4.22 kcal/mol
- solvation free energy, 298 K (in CCO): -4.22 kcal/mol
- solvation free energy, 298 K (in ClC(Cl)(Cl)Cl): -4.75 kcal/mol
- solvation free energy, 298 K (in O): -0.34 kcal/mol

Compound: CCCCCCCCCCCCCN
- solvation free energy, 298 K (in O): -3.2 kcal/mol

Compound: ClC=CCl
- solvation free energy, 298 K (in COC(C)=O): -3.98 kcal/mol
- solvation free energy, 298 K (in ClCCCl): -3.71 kcal/mol

Compound: CCCCCC1CCCC1
- solvation free energy, 298 K (in O): 2.55 kcal/mol

Compound: COc1cc(Cl)c(Cl)c(Cl)c1Cl
- solvation free energy, 298 K (in O): -2.55 kcal/mol

Compound: CCCCC(=O)OC
- solvation free energy, 298 K (in CCCCCC): -4.93 kcal/mol
- solvation free energy, 298 K (in CCCCCCC): -4.91 kcal/mol
- solvation free energy, 298 K (in CCCCCCCC): -4.85 kcal/mol
- solvation free energy, 298 K (in CCCCCCCCCC): -4.75 kcal/mol
- solvation free energy, 298 K (in CO): -5.33 kcal/mol
- solvation free energy, 298 K (in O): -2.56 kcal/mol

Compound: CCCCCCCCCCCCCCCCCCCCO
- solvation free energy, 298 K (in CC(C)O): -16.2 kcal/mol
- solvation free energy, 298 K (in CCCCCCCCCCO): -16.4 kcal/mol
- solvation free energy, 298 K (in CCCCCCCCO): -16.4 kcal/mol
- solvation free energy, 298 K (in CCCCCCO): -16.5 kcal/mol

Compound: C=Cc1ccccc1
- solvation free energy, 298 K (in O): -1.27 kcal/mol

Compound: CCCCCCCCCCCCCCCO
- solvation free energy, 298 K (in CCCCOCCCC): -12.4 kcal/mol
- solvation free energy, 298 K (in O): -2.92 kcal/mol

Compound: Cc1ccc(N(O)C(=O)COc2ccccc2)cc1
- solvation free energy, 298 K (in O): -12.8 kcal/mol
